Structures can show the parent of a compound that is named as a salt.
Molecular target: AKT1 (Homo sapiens (Human), UniProt P31749)
Experiment: Inactive Akt Alpha Screen Assay
Settings: non *labeled: Akt Alpha Screen assay; read-out: AKT1 biochemical assay, IC50
Procedure: AKT1 activity was assayed using the GSK3-derived biotinylated peptide substrate, crosstide (biotin-[…]), and AlphaScreen™ (Amplified Luminescent Proximity Homogeneous Assay) technology. AKT1 activation was achieved by the addition of the activating kinases PDK1 and MAPKAPK2, lipid vesicles, and ATP. The extent of peptide phosphorylation was determined using a phospho-AKT substrate antibody and acceptor beads conjugated to Protein A and donor beads conjugated to streptavidin that bind to the biotin on the peptide. Excitation of the donor beads converted ambient oxygen to excited singlet oxygen which, when in close proximity to acceptor beads, reacted with acceptor beads resulting in signal amplification. […] The plates were incubated for 30 minutes at room temperature, and then stopped in the dark by the addition of 10 μL stop/detection mixture prepared in assay buffer containing EDTA, AlphaScreen™ Streptavidin Donor and Protein A Acceptor beads, and phospho-AKT substrate antibody for final concentrations of 10 mM EDTA, 500 ng/well of both AlphaScreen™ Streptavidin Donor beads and Protein A Acceptor beads, and phospho-AKT substrate antibody at a final dilution of 1:350. Assay plates were incubated for 90 minutes at room temperature in the dark, and the plates were read on a Perkin Elmer Envision Multilabel plate reader (excitation wavelength: […], emission wavelength: 570 nm). […] Envision Instrument Settings: • Instrument: Perkin Elmer Envision • Plate: 96 well • Program Name: • Excitation: Ex Top • Mirror: General Dual—Slot 2 • Excitation Filter: CFP430 Ex.

AKT1, sequence (P31749 whole entry): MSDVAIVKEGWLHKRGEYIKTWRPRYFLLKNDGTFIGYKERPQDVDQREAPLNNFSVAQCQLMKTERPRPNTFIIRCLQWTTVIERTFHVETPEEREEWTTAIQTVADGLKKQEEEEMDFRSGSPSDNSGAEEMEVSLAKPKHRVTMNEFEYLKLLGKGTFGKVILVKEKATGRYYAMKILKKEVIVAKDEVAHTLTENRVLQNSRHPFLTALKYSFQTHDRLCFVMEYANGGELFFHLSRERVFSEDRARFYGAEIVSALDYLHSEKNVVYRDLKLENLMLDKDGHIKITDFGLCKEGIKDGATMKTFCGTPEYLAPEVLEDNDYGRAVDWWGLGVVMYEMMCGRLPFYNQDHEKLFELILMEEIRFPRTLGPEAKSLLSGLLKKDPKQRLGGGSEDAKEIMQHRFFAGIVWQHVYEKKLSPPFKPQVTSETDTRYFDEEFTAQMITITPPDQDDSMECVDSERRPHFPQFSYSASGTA

| Structure (SMILES) | IC50 |
| --- | --- |
| O=C(Cc1cccc2ccccc12)Nc1ccc(-c2nnc3n2-c2cccnc2Nc2ccccc2-3)cc1 [Example 35, N-(4-(9H-benzo[f]pyrido[2,3-b][1,2,4]triazolo[4,3-d][1,4]diazepin-3-yl)phenyl)-2-(naphthalen-1-yl)acetamide] | 950 nM |
| O=C(NCc1ccc(-c2nnc3n2-c2cccnc2Nc2ccccc2-3)cc1)c1ccco1 [Example 97, N-(4-(9H-benzo[f]pyrido[2,3-b][1,2,4]triazolo[4,3-d][1,4]diazepin-3-yl)benzyl)furan-2-carboxamide] | 1100 nM |
| O=S(=O)(Nc1ccc(-c2nnc3n2-c2cccnc2Nc2ccccc2-3)cc1)c1ccccc1 [Example 106, N-(4-(9H-benzo[f]pyrido[2,3-b][1,2,4]triazolo[4,3-d][1,4]diazepin-3-yl)phenyl)benzenesulfonamide] | 6600 nM |
| c1ccc(OC2CCN(Cc3ccc(-c4nnc5n4-c4cccnc4Nc4ccccc4-5)cc3)CC2)cc1 [Example 188, 3-(4-((4-phenoxypiperidin-1-yl)methyl)phenyl)-9H-benzo[f]pyrido[2,3-b][1,2,4]triazolo[4,3-d][1,4]diazepine] | 830 nM |
| NCc1ccc(-c2nnc3n2-c2cccnc2Nc2ccccc2-3)cc1 [Example 62, (4-(9H-benzo[f]pyrido[2,3-b][1,2,4]triazolo[4,3-d][1,4]diazepin-3-yl)phenyl)methanamine] | 690 nM |
| CC(C)(C)OC(=O)NC1(c2ccc(-c3nnc4n3-c3cccnc3Nc3ccccc3-4)cc2)CC1 [Example 221, tert-butyl (1-(4-(9H-benzo[f]pyrido[2,3-b][1,2,4]triazolo[4,3-d][1,4]diazepin-3-yl)phenyl)cyclopropyl)carbamate] | 1400 nM |
| O=C(NCc1ccc(-c2nnc3n2-c2cccnc2Nc2ccccc2-3)cc1)C1CCC1 [Example 100, N-(4-(9H-benzo[f]pyrido[2,3-b][1,2,4]triazolo[4,3-d][1,4]diazepin-3-yl)benzyl)cyclobutanecarboxamide] | 1800 nM |
| O=C(NCc1ccc(-c2nnc3n2-c2cccnc2Nc2ccccc2-3)cc1)Nc1cccc(F)c1 [Example 122, 1-(4-(9H-benzo[f]pyrido[2,3-b][1,2,4]triazolo[4,3-d][1,4]diazepin-3-yl)benzyl)-3-(3-fluorophenyl)urea] | 1100 nM |
| CC(C)(C)CC(=O)Nc1ccc(-c2nnc3n2-c2cccnc2Nc2ccccc2-3)cc1 [Example 36, N-(4-(9H-benzo[f]pyrido[2,3-b][1,2,4]triazolo[4,3-d][1,4]diazepin-3-yl)phenyl)-3,3-dimethylbutanamide] | 340 nM |
| OCc1ccc(-c2nnc3n2-c2cccnc2Nc2ccccc2-3)cc1 [Example 23, (4-(9H-benzo[f]pyrido[2,3-b][1,2,4]triazolo[4,3-d][1,4]diazepin-3-yl)phenyl)methanol] | 1000 nM |
| Cc1cc(C(=O)NC2(c3ccc(-c4nnc5n4-c4cccnc4Nc4ccccc4-5)cc3)CCC2)no1 [Example 206, N-(1-(4-(9H-benzo[f]pyrido[2,3-b][1,2,4]triazolo[4,3-d][1,4]diazepin-3-yl)phenyl)cyclobutyl)-5-methylisoxazole-3-carboxamide] | 240 nM |
| Clc1ccc(-c2nnc3n2-c2cccnc2Nc2ccccc2-3)cc1Cl [Example 13, hydrochloride] | 5100 nM |
| N#Cc1cccc(C(=O)Nc2ccc(-c3nnc4n3-c3cccnc3Nc3ccccc3-4)cc2)c1 [Example 60, N-(4-(9H-benzo[f]pyrido[2,3-b][1,2,4]triazolo[4,3-d][1,4]diazepin-3-yl)phenyl)-3-cyanobenzamide] | 76 nM |
| c1ccc2c(c1)Nc1ncccc1-n1c(-c3ccc(CNC4CCC4)cc3)nnc1-2 [Example 69, N-(4-(9H-benzo[f]pyrido[2,3-b][1,2,4]triazolo[4,3-d][1,4]diazepin-3-yl)benzyl)cyclobutanamine] | 4500 nM |
| c1ccc(CN2CCN(Cc3ccc(-c4nnc5n4-c4cccnc4Nc4ccccc4-5)cc3)CC2)cc1 [Example 82, 3-(4-((4-benzylpiperazin-1-yl)methyl)phenyl)-9H-benzo[f]pyrido[2,3-b][1,2,4]triazolo[4,3-d][1,4]diazepine] | 5300 nM |
| O=C(c1ccc(-c2nnc3n2-c2cccnc2Nc2ccccc2-3)cc1)N1CCC(n2c(=O)[nH]c3ccccc32)CC1 [Example 26, 1-(1-(4-(9H-benzo[f]pyrido[2,3-b][1,2,4]triazolo[4,3-d][1,4]diazepin-3-yl)benzoyl)piperidin-4-yl)-1H-benzo[d]imidazol-2(3H)-one] | 800 nM |
| Cc1cc(COCc2ccc(-c3nnc4n3-c3cccnc3Nc3ccccc3-4)cc2)no1 [Example 185, 3-(((4-(9H-benzo[f]pyrido[2,3-b][1,2,4]triazolo[4,3-d][1,4]diazepin-3-yl)benzyl)oxy)methyl)-5-methylisoxazole] | 2100 nM |

| Structure (SMILES) | IC50 |
| --- | --- |
| O=C(c1ccccc1)N1CCN(Cc2ccc(-c3nnc4n3-c3cccnc3Nc3ccccc3-4)cc2)CC1 [Example 144, (4-(4-(9H-benzo[f]pyrido[2,3-b][1,2,4]triazolo[4,3-d][1,4]diazepin-3-yl)benzyl)piperazin-1-yl)(phenyl)methanone] | 1900 nM |
| COc1cccc(CNC(=O)NC2CCN(Cc3ccc(-c4nnc5n4-c4cccnc4Nc4ccccc4-5)cc3)CC2)c1 [Example 171, 1-(1-(4-(9H-benzo[f]pyrido[2,3-b][1,2,4]triazolo[4,3-d][1,4]diazepin-3-yl)benzyl)piperidin-4-yl)-3-(3-methoxybenzyl)urea] | 780 nM |
| O=S(=O)(NCc1ccc(-c2nnc3n2-c2cccnc2Nc2ccccc2-3)cc1)c1ccccc1F [Example 112, N-(4-(9H-benzo[f]pyrido[2,3-b][1,2,4]triazolo[4,3-d][1,4]diazepin-3-yl)benzyl)-2-fluorobenzenesulfonamide] | 170 nM |
| Cc1cccc2c1Nc1ncccc1-n1c(-c3ccc(C4(N)CCC4)cc3)nnc1-2 [Example 218, 1-(4-(10-methyl-9H-benzo[f]pyrido[2,3-b][1,2,4]triazolo[4,3-d][1,4]diazepin-3-yl)phenyl)cyclobutanamine] | 1400 nM |
| NC1(c2ccc(-c3nnc4n3-c3cccnc3Nc3ccccc3-4)cc2)CCCCC1 [Example 217, 1-(4-(9H-benzo[f]pyrido[2,3-b][1,2,4]triazolo[4,3-d][1,4]diazepin-3-yl)phenyl)cyclohexanamine] | 500 nM |
| N#Cc1cccc(C(=O)N2CCN(Cc3ccc(-c4nnc5n4-c4cccnc4Nc4ccccc4-5)cc3)CC2)c1 [Example 159, 3-(4-(4-(9H-benzo[f]pyrido[2,3-b][1,2,4]triazolo[4,3-d][1,4]diazepin-3-yl)benzyl)piperazine-1-carbonyl)benzonitrile] | 2000 nM |
| CCCC(=O)Nc1ccc(-c2nnc3n2-c2cccnc2Nc2ccccc2-3)cc1 [Example 32, N-(4-(9H-benzo[f]pyrido[2,3-b][1,2,4]triazolo[4,3-d][1,4]diazepin-3-yl)phenyl)butyramide] | 730 nM |
| O=C(Nc1ccccc1)NC1(c2ccc(-c3nnc4n3-c3cccnc3Nc3ccccc3-4)cc2)CCC1 [Example 194, 1-(1-(4-(9H-benzo[f]pyrido[2,3-b][1,2,4]triazolo[4,3-d][1,4]diazepin-3-yl)phenyl)cyclobutyl)-3-phenylurea] | 1200 nM |
| O=C(Nc1ccc(-c2nnc3n2-c2cccnc2Nc2ccccc2-3)cc1)c1ccco1 [Example 50, N-(4-(9H-benzo[f]pyrido[2,3-b][1,2,4]triazolo[4,3-d][1,4]diazepin-3-yl)phenyl)furan-2-carboxamide] | 130 nM |
| O=C(Nc1ccccc1F)NC1CCN(Cc2ccc(-c3nnc4n3-c3cccnc3Nc3ccccc3-4)cc2)CC1 [Example 167, 1-(1-(4-(9H-benzo[f]pyrido[2,3-b][1,2,4]triazolo[4,3-d][1,4]diazepin-3-yl)benzyl)piperidin-4-yl)-3-(2-fluorophenyl)urea] | 440 nM |
| OC1CCCN(Cc2ccc(-c3nnc4n3-c3cccnc3Nc3ccccc3-4)cc2)C1 (stereo not drawn) [Example 83, 1-(4-(9H-benzo[f]pyrido[2,3-b][1,2,4]triazolo[4,3-d][1,4]diazepin-3-yl)benzyl)piperidin-3-ol] | 5700 nM |
| O=C(Nc1ccc(-c2nnc3n2-c2cccnc2Nc2ccccc2-3)cc1)c1ccc(C(F)(F)F)cc1 [Example 52, N-(4-(9H-benzo[f]pyrido[2,3-b][1,2,4]triazolo[4,3-d][1,4]diazepin-3-yl)phenyl)-4-(trifluoromethyl)benzamide] | 650 nM |
| O=C(Nc1ccc(-c2nnc3n2-c2cccnc2Nc2ccccc2-3)cc1)c1cccc2ccccc12 [Example 34, N-(4-(9H-benzo[f]pyrido[2,3-b][1,2,4]triazolo[4,3-d][1,4]diazepin-3-yl)phenyl)-1-naphthamide] | 640 nM |
| O=C(c1ccc(F)cc1)C1CCN(Cc2ccc(-c3nnc4n3-c3cccnc3Nc3ccccc3-4)cc2)CC1 [Example 164, (1-(4-(9H-benzo[f]pyrido[2,3-b][1,2,4]triazolo[4,3-d][1,4]diazepin-3-yl)benzyl)piperidin-4-yl)(4-fluorophenyl)methanone] | 1800 nM |
| Fc1ccc(-c2nnc3n2-c2cccnc2Nc2ccccc2-3)c(F)c1 [Example 17] | 7200 nM |
| Cc1ccc(CN2CCN(Cc3ccc(-c4nnc5n4-c4cccnc4Nc4ccccc4-5)cc3)CC2)cc1 [Example 91, 3-(4-((4-(4-methylbenzyl)piperazin-1-yl)methyl)phenyl)-9H-benzo[f]pyrido[2,3-b][1,2,4]triazolo[4,3-d][1,4]diazepine] | 2800 nM |

— patent US8541407B2 (ArQule, Inc., priority 2010, dated 2013)
